Assay results: patent publication US20230085307A1, “PYRIDAZINONE COMPOUND AND HERBICIDE” (NISSAN CHEMICAL CORPORATION, priority 2019, published 2023)

Tests used:
barnyard grass [1] = assay: Test Example 3: herbicidal effect by foliage application, Wagner pot (Table 18, symbol H); type: in vivo, barnyard grass (Echinochloa crus-galli)
How it was run: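 Plants were sown in alluvial soil held under 0.1–0.5 cm standing water and grown 14 days in a greenhouse at 25–30 °C. An emulsifiable formulation, water-diluted to the set dose, was then sprayed onto the foliage, and effects were scored three weeks later using previously defined criteria.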

persian speedwell = assay: Test Example 5: herbicidal effect by foliage application, plastic box (Table 20, symbol R); type: in vivo, Persian speedwell (Veronica persica); conditions: foliage application, three weeks after application
How it was run: (§1)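 Post-emergence foliar test in sterilized diluvial soil. Compound applied as water-diluted emulsion at a predetermined rate to 14-day-old plants; evaluation at three weeks.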

Japanese bulrush = assay: Test Example 2: herbicidal activity, application during weed generation under submerged conditions (Table 17, symbol B); type: in vivo, Japanese bulrush (Schoenoplectus juncoides); conditions: application during weed generation, submerged conditions
How it was run: (§2)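 Steps: fill Wagner pots with alluvial soil; add water to give 4 cm depth; sow the species mixed; grow under glass at 25–30° C.; at 1–2 leaves apply water-diluted emulsion formulation to the water surface at a fixed herbicide amount; score after 3 weeks.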

chickweed [2] = assay: Test Example 5: herbicidal effect by foliage application, plastic box (Table 20, symbol P); type: in vivo, common chickweed (Stellaria media); conditions: foliage application, three weeks after application
How it was run: as §1

chickweed [3] = assay: Test Example 4: herbicidal effect by soil treatment (Table 19, symbol P); type: in vivo, common chickweed (Stellaria media)
How it was run: (§3)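 Emulsion of test compound, water-diluted to predetermined amount, sprayed on soil after sowing (seed depth ~1.5 cm, sterilized diluvial soil). Greenhouse, 25–30° C. Effect graded at three weeks post-spray.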

lambsquarters = assay: Test Example 4: herbicidal effect by soil treatment (Table 19, symbol O); type: in vivo, lambsquarters (Chenopodium album)
How it was run: as §3

late watergrass = assay: Test Example 2: herbicidal activity, application during weed generation under submerged conditions (Table 17, symbol A); type: in vivo, late watergrass (Echinochloa oryzicola); conditions: application during weed generation, submerged conditions
How it was run: as §2

barnyard grass [4] = assay: Test Example 4: herbicidal effect by soil treatment (Table 19, symbol H); type: in vivo, barnyard grass (Echinochloa crus-galli)
How it was run: as §3

blackgrass [5] = assay: Test Example 5: herbicidal effect by foliage application, plastic box (Table 20, symbol J); type: in vivo, blackgrass (Alopecurus myosuroides); conditions: foliage application, three weeks after application
How it was run: as §1

green foxtail = assay: Test Example 4: herbicidal effect by soil treatment (Table 19, symbol G); type: in vivo, green foxtail (Setaria viridis)
How it was run: as §3

redroot pigweed = assay: Test Example 5: herbicidal effect by foliage application, plastic box (Table 20, symbol N); type: in vivo, redroot pigweed (Amaranthus retroflexus); conditions: foliage application, three weeks after application
How it was run: as §1

Italian ryegrass [6] = assay: Test Example 4: herbicidal effect by soil treatment (Table 19, symbol K); type: in vivo, Italian ryegrass (Lolium multiflorum)
How it was run: as §3

wild oat = assay: Test Example 4: herbicidal effect by soil treatment (Table 19, symbol I); type: in vivo, wild oat (Avena fatua)
How it was run: as §3

velvetleaf [7] = assay: Test Example 4: herbicidal effect by soil treatment (Table 19, symbol M); type: in vivo, velvetleaf (Abutilon theophrasti)
How it was run: as §3

blackgrass [8] = assay: Test Example 4: herbicidal effect by soil treatment (Table 19, symbol J); type: in vivo, blackgrass (Alopecurus myosuroides)
How it was run: as §3

velvetleaf [9] = assay: Test Example 5: herbicidal effect by foliage application, plastic box (Table 20, symbol M); type: in vivo, velvetleaf (Abutilon theophrasti); conditions: foliage application, three weeks after application
How it was run: as §1

Italian ryegrass [10] = assay: Test Example 5: herbicidal effect by foliage application, plastic box (Table 20, symbol K); type: in vivo, Italian ryegrass (Lolium multiflorum); conditions: foliage application, three weeks after application
How it was run: as §1

[11] = amount of applied herbicide 323 g/ha
[12] = amount of applied herbicide 320 g/ha

Compound	herbicidal effect on barnyard grass (H) (barnyard grass [1]; 320 g/ha)	R: persian speedwell, herbicidal effect grade (persian speedwell; 320 g/ha)	herbicidal effect rating, B: Japanese bulrush (Japanese bulrush; AAH 320 g/ha)	P: chickweed, herbicidal effect grade (chickweed [2]; 320 g/ha)	P: chickweed, herbicidal effect grade (chickweed [3]; [12])	O: lambsquarters, herbicidal effect grade (lambsquarters; [12])	herbicidal effect rating, A: late watergrass (late watergrass; AAH 320 g/ha)	H: barnyard grass, herbicidal effect grade (barnyard grass [4]; [12])	J: blackgrass, herbicidal effect grade (blackgrass [5]; 320 g/ha)	G: green foxtail, herbicidal effect grade (green foxtail; [12])	N: redroot pigweed, herbicidal effect grade (redroot pigweed; 320 g/ha)	K: Italian ryegrass, herbicidal effect grade (Italian ryegrass [6]; [12])	I: wild oat, herbicidal effect grade (wild oat; [12])	M: velvetleaf, herbicidal effect grade (velvetleaf [7]; [12])	J: blackgrass, herbicidal effect grade (blackgrass [8]; [12])	M: velvetleaf, herbicidal effect grade (velvetleaf [9]; 320 g/ha)	K: Italian ryegrass, herbicidal effect grade (Italian ryegrass [10]; 320 g/ha)	further results
CCCC(=O)Oc1c(C)nn(C)c(=O)c1-c1c(-c2ccccc2OCC)sc2cc(OCC)ccc12 [3-094]	–	–	–	–	–	–	–	–	–	–	–	–	–	–	–	–	–	herbicidal effect on barnyard grass (H) (barnyard grass [1]; 323 g/ha): 5 (Herbicidal rate of 90% or more (almost completely withered)); R: persian speedwell, herbicidal effect grade (persian speedwell; 323 g/ha): 5 (Herbicidal rate of 90% or more (almost completely withered)); herbicidal effect rating, B: Japanese bulrush (Japanese bulrush; AAH 323 g/ha): 4 (Herbicidal rate of 70% or more and less than 90%); P: chickweed, herbicidal effect grade (chickweed [2]; 323 g/ha): 5 (Herbicidal rate of 90% or more (almost completely withered)); P: chickweed, herbicidal effect grade (chickweed [3]; [11]): 4 (Herbicidal rate of 70% or more and less than 90%); O: lambsquarters, herbicidal effect grade (lambsquarters; [11]): 4 (Herbicidal rate of 70% or more and less than 90%); herbicidal effect rating, A: late watergrass (late watergrass; AAH 323 g/ha): 3 (Herbicidal rate of 40% or more and less than 70%); H: barnyard grass, herbicidal effect grade (barnyard grass [4]; [11]): 0 (Herbicidal rate of 5% or less (almost no effect)); J: blackgrass, herbicidal effect grade (blackgrass [5]; 323 g/ha): 4 (Herbicidal rate of 70% or more and less than 90%); G: green foxtail, herbicidal effect grade (green foxtail; [11]): 3 (Herbicidal rate of 40% or more and less than 70%); N: redroot pigweed, herbicidal effect grade (redroot pigweed; 323 g/ha): 5 (Herbicidal rate of 90% or more (almost completely withered)); K: Italian ryegrass, herbicidal effect grade (Italian ryegrass [6]; [11]): 4 (Herbicidal rate of 70% or more and less than 90%); I: wild oat, herbicidal effect grade (wild oat; [11]): 0 (Herbicidal rate of 5% or less (almost no effect)); M: velvetleaf, herbicidal effect grade (velvetleaf [7]; [11]): 0 (Herbicidal rate of 5% or less (almost no effect)); J: blackgrass, herbicidal effect grade (blackgrass [8]; [11]): 2 (Herbicidal rate of 20% or more and less than 40%); M: velvetleaf, herbicidal effect grade (velvetleaf [9]; 323 g/ha): 5 (Herbicidal rate of 90% or more (almost completely withered)); K: Italian ryegrass, herbicidal effect grade (Italian ryegrass [10]; 323 g/ha): 3 (Herbicidal rate of 40% or more and less than 70%)
CCCC(=O)Oc1c(C)nn(C)c(=O)c1-c1c(-c2ccc(F)cc2OCC)sc2cc(OCC)ccc12 [3-096]	5 (Herbicidal rate of 90% or more (almost completely withered))	5 (Herbicidal rate of 90% or more (almost completely withered))	5 (Herbicidal rate of 90% or more (almost completely withered))	5 (Herbicidal rate of 90% or more (almost completely withered))	5 (Herbicidal rate of 90% or more (almost completely withered))	5 (Herbicidal rate of 90% or more (almost completely withered))	4 (Herbicidal rate of 70% or more and less than 90%)	0 (Herbicidal rate of 5% or less (almost no effect))	5 (Herbicidal rate of 90% or more (almost completely withered))	4 (Herbicidal rate of 70% or more and less than 90%)	5 (Herbicidal rate of 90% or more (almost completely withered))	2 (Herbicidal rate of 20% or more and less than 40%)	0 (Herbicidal rate of 5% or less (almost no effect))	4 (Herbicidal rate of 70% or more and less than 90%)	3 (Herbicidal rate of 40% or more and less than 70%)	5 (Herbicidal rate of 90% or more (almost completely withered))	3 (Herbicidal rate of 40% or more and less than 70%)	–
CCCOc1ccc2c(-c3c(O)c(C)nn(C)c3=O)c(-c3ccccc3OC)sc2c1 [3-099]	5 (Herbicidal rate of 90% or more (almost completely withered))	5 (Herbicidal rate of 90% or more (almost completely withered))	4 (Herbicidal rate of 70% or more and less than 90%)	5 (Herbicidal rate of 90% or more (almost completely withered))	3 (Herbicidal rate of 40% or more and less than 70%)	5 (Herbicidal rate of 90% or more (almost completely withered))	3 (Herbicidal rate of 40% or more and less than 70%)	4 (Herbicidal rate of 70% or more and less than 90%)	5 (Herbicidal rate of 90% or more (almost completely withered))	5 (Herbicidal rate of 90% or more (almost completely withered))	5 (Herbicidal rate of 90% or more (almost completely withered))	5 (Herbicidal rate of 90% or more (almost completely withered))	0 (Herbicidal rate of 5% or less (almost no effect))	3 (Herbicidal rate of 40% or more and less than 70%)	4 (Herbicidal rate of 70% or more and less than 90%)	5 (Herbicidal rate of 90% or more (almost completely withered))	5 (Herbicidal rate of 90% or more (almost completely withered))	–
